Patent US9056104B2, “Dynamic inhibitors of heat shock protein 90” (THE UNIVERSITY OF KANSAS, priority 2011, dated 2015)
Like-named read-outs stand apart in the source and are kept apart here.

Legend:
Assay type in all cases: cell-based
[1] = test system: MCF-7 (estrogen receptor positive breast cancer cells); test: Anti-proliferative activity against MCF-7 cells; conditions: mean ± SD
Experimental: (§1) Once synthesized, the library of coumermycin A1 analogs containing the olefinic and saturated linkers, were evaluated for anti-proliferative activity against SKBr3 (estrogen receptor negative, Her2 over-expressing breast cancer cells), MCF-7 (estrogen receptor positive breast cancer cells), A549 (human lung adenocarcinoma epithelial), HT29 (Human colon adenocarcinoma grade II), and PC3mm2 (androgen receptor insensitive prostate cancer) cell lines. […] As shown, X is at the 6 position and Y is at the 8 position.

[2] = test system: SKBr3 (estrogen receptor negative, Her2 over-expressing breast cancer cells); test: Anti-proliferative activity against SKBr3 cells; conditions: for IC50: mean ± SD
Experimental: as §1

[3] = test system: HT29 (Human colon adenocarcinoma grade II); test: Anti-proliferative activity against HT29 cells
Experimental: as §1, with “lines. The activities produced provide insight into the optimal distance between binding sites and provide rationale for subsequent analog design.” for “lines.”

[4] = test system: A549 (human lung adenocarcinoma epithelial); test: Anti-proliferative activity against A549 cells
Experimental: as §1, with “lines. The activities produced provide insight into the optimal distance between binding sites and provide rationale for subsequent analog design.” for “lines.”

[5] = test system: PC3mm2 (androgen receptor insensitive prostate cancer); test: Anti-proliferative activity against PC3mm2 cells
Experimental: as §1, with “lines. The activities produced provide insight into the optimal distance between binding sites and provide rationale for subsequent analog design.” for “lines.”

[6] = test system: HSP90-dependent client proteins (Her-2, Raf, Akt); test: Western blot analyses of HSP90 client protein degradation in MCF-7 breast cancer cells; conditions: MCF-7 lysates, 24 hour treatment, 5x and 1/2 of antiproliferative IC50; actin control
Experimental: Since actin is not dependent on HSP90 for its maturation, actin levels should remain constant after treatment with an HSP90 inhibitor and is therefore used as a control. […] L represents a concentration ½ of the anti-proliferative IC50 value while H represents a concentration 5 times greater than the anti-proliferative IC50 value. GDA (500 nM) represents a positive control, while DMSO (0), vehicle, serves as the negative control. […]

[7] = test system: SKBr3, MCF-7, A549, HT29 and PC3mm2 cell lines; test: Anti-proliferative activity, cell lines not specified; conditions: versus Compounds 65-70
Experimental: as §1, with “lines. The activities produced provide insight into the optimal distance between binding sites and provide rationale for subsequent analog design.” for “lines.”

[8] = Table 3, read-out: Anti-Proliferation Activities of Saturated Linker Dimers, MCF-7
[9] = Table 3, read-out: Anti-Proliferation Activities of Saturated Linker Dimers, SKBr3
[10] = Table 3, read-out: Anti-Proliferation Activities of Saturated Linker Dimers, HT29
[11] = Table 3, read-out: Anti-Proliferation Activities of Saturated Linker Dimers, A549
[12] = Table 3, read-out: Anti-Proliferation Activities of Saturated Linker Dimers, PC3mm2
[13] = Table 4, read-out: Anti-Proliferation Activities of Biaryl Dimers, MCF-7
[14] = Table 4, read-out: Anti-Proliferation Activities of Biaryl Dimers, SKBr3
[15] = Table 1, at least two experiments in triplicate, read-out: Anti-Proliferation Activities of Noviosylated Olefin Dimers, MCF-7
[16] = Table 1, at least two experiments in triplicate, read-out: Anti-Proliferation Activities of Noviosylated Olefin Dimers, SKBr3
[17] = Table 2, read-out: Anti-Proliferation Activities of non-Noviosylated Olefin Dimers, MCF7
[18] = Table 2, read-out: Anti-Proliferation Activities of non-Noviosylated Olefin Dimers, SKBr3
[19] = Table 2, read-out: Anti-Proliferation Activities of non-Noviosylated Olefin Dimers, A549
[20] = Table 2, read-out: Anti-Proliferation Activities of non-Noviosylated Olefin Dimers, PC3mm2
[21] = Table 2, read-out: Anti-Proliferation Activities of non-Noviosylated Olefin Dimers, HT29

Structure (SMILES): Cc1c(OC2CCN(C)CC2)ccc2cc(NC(=O)CCCCCCCCC(=O)Nc3cc4ccc(OC5CCN(C)CC5)c(C)c4oc3=O)c(=O)oc12 [Compound 44]
- IC50 [1, 8]: 3680 ± 400 nM
- IC50 [2, 9]: 2840 ± 100 nM
- IC50 [3, 10]: 3900 nM
- IC50 [4, 11]: 13200 nM
- IC50 [5, 12]: 10200 nM

Structure (SMILES): Cc1c(OC2CCN(C)CC2)ccc2cc(NC(=O)CCCCC(=O)Nc3cc4ccc(OC5CCN(C)CC5)c(C)c4oc3=O)c(=O)oc12 [Compound 42]
- IC50 [1, 8]: 2460 ± 400 nM
- IC50 [2, 9]: 1260 ± 200 nM

Structure (SMILES): COc1cc(C(=O)Nc2cc3ccc(OC4OC(C)(C)C(OC)C(O)C4O)c(C)c3oc2=O)cc(-c2cc(OC)cc(C(=O)Nc3cc4ccc(OC5OC(C)(C)C(OC)C(O)C5O)c(C)c4oc3=O)c2)c1 (stereo not drawn) [Compound 68]
- IC50 [1, 13]: 1850 ± 520 nM
- IC50 [2, 14]: 1950 ± 400 nM
- IC50 ([3]; Table 4, read-out: Anti-Proliferation Activities of Biaryl Dimers, HT29): 11700 nM
- IC50 ([4]; Table 4, read-out: Anti-Proliferation Activities of Biaryl Dimers, A549): 28900 nM
- IC50 ([5]; Table 4, read-out: Anti-Proliferation Activities of Biaryl Dimers, PC3mm2): 12500 nM

Structure (SMILES): COc1cc2cc(NC(=O)CCC=CCCC(=O)Nc3cc4cc(OC)c(OC5OC(C)(C)C(OC)C(O)C5O)c(C)c4oc3=O)c(=O)oc2c(C)c1OC1OC(C)(C)C(OC)C(O)C1O (stereo not drawn) [Compound 18]
- IC50 [1, 15]: 168000 ± 9700 nM
- IC50 [2, 16]: 106000 ± 13200 nM

Structure (SMILES): Cc1c(OC2CCN(C)CC2)ccc2cc(NC(=O)CC/C=C\CCC(=O)Nc3cc4ccc(OC5CCN(C)CC5)c(C)c4oc3=O)c(=O)oc12 [Compound 38]
- IC50 [1, 17]: 49900 ± 2600 nM
- IC50 [2, 18]: > 100000 nM
- IC50 [4, 19]: 77600 nM
- IC50 [5, 20]: 32900 nM

Structure (SMILES): COc1ccc(C(=O)Nc2cc3cc(OC)c(OC4OC(C)(C)C(OC)C(O)C4O)c(C)c3oc2=O)cc1-c1cc(C(=O)Nc2cc3cc(OC)c(OC4OC(C)(C)C(OC)C(O)C4O)c(C)c3oc2=O)ccc1OC (stereo not drawn) [Compound 69]
- IC50 [1, 13]: 720 ± 210 nM
- IC50 [2, 14]: 110 ± 50 nM
- fold more active on SkBr3 cell lines than corresponding 8-Me and 8-OMe coumarin analogs (Compounds 66 and 68) ([2]; versus Compounds 66 and 68): 7-8 fold

Structure (SMILES): COc1c(OC2CCN(C)CC2)ccc2cc(NC(=O)CCC/C=C/CCCC(=O)Nc3cc4ccc(OC5CCN(C)CC5)c(OC)c4oc3=O)c(=O)oc12 [Compound 34]
- IC50 [1, 17]: 880 ± 110 nM
- IC50 [2, 18]: 370 ± 50 nM
- IC50 [4, 19]: 1210 nM
- IC50 [5, 20]: 50 nM

Structure (SMILES): Cc1c(OC2CCN(C)CC2)ccc2cc(NC(=O)C/C=C/CC(=O)Nc3cc4ccc(OC5CCN(C)CC5)c(C)c4oc3=O)c(=O)oc12 [Compound 26]
- IC50 [1, 17]: 290 ± 10 nM
- IC50 [2, 18]: 180 ± 30 nM
- IC50 [3, 21]: 7100 nM
- IC50 [4, 19]: 8840 nM
- IC50 [5, 20]: 7510 nM

Structure (SMILES): COc1cc2cc(NC(=O)CC/C=C/CCC(=O)Nc3cc4cc(OC)c(OC5CCN(C)CC5)c(C)c4oc3=O)c(=O)oc2c(C)c1OC1CCN(C)CC1 [Compound 30]
- IC50 [1, 17]: 1310 ± 100 nM
- IC50 [2, 18]: 1100 ± 130 nM
- IC50 [4, 19]: 13400 nM
- IC50 [5, 20]: 4860 nM

Structure (SMILES): COc1cc2cc(NC(=O)C/C=C/CC(=O)Nc3cc4cc(OC)c(OC5CCN(C)CC5)c(C)c4oc3=O)c(=O)oc2c(C)c1OC1CCN(C)CC1 [Compound 27]
- IC50 [1, 17]: 560 ± 50 nM
- IC50 [2, 18]: 270 ± 10 nM
- IC50 [4, 19]: 550 nM
- IC50 [5, 20]: 170 nM

Structure (SMILES): Cc1c(OC2CCN(C)CC2)ccc2cc(NC(=O)CCCC/C=C/CCCCC(=O)Nc3cc4ccc(OC5CCN(C)CC5)c(C)c4oc3=O)c(=O)oc12 [Compound 35]
- IC50 [1, 17]: 730 ± 100 nM
- IC50 [2, 18]: 510 ± 60 nM

Structure (SMILES): COC1C(O)C(O)C(Oc2ccc3cc(NC(=O)CCC=CCCC(=O)Nc4cc5ccc(OC6OC(C)(C)C(OC)C(O)C6O)c(C)c5oc4=O)c(=O)oc3c2C)OC1(C)C (stereo not drawn) [Compound 21]
- IC50 [1, 15]: 3900 ± 700 nM
- IC50 [2, 16]: 1500 ± 100 nM

Structure (SMILES): COc1c(OC2CCN(C)CC2)ccc2cc(NC(=O)CC/C=C/CCC(=O)Nc3cc4ccc(OC5CCN(C)CC5)c(OC)c4oc3=O)c(=O)oc12 [Compound 31]
- IC50 [1, 17]: 1120 ± 30 nM
- IC50 [2, 18]: 2220 ± 500 nM
- degradation of HSP90 client proteins (Her-2, Raf, Akt), Western blot [6]: no activity against HSP90 client proteins
- IC50 [4, 19]: 1220 nM
- IC50 [5, 20]: 60 nM

Structure (SMILES): Cc1c(OC2CCN(C)CC2)ccc2cc(NC(=O)CCCCCCC(=O)Nc3cc4ccc(OC5CCN(C)CC5)c(C)c4oc3=O)c(=O)oc12 [Compound 43]
- IC50 [1, 8]: 2820 ± 300 nM
- IC50 [2, 9]: 1190 ± 300 nM
- IC50 [3, 10]: 26300 nM
- IC50 [4, 11]: 30400 nM
- IC50 [5, 12]: 13800 nM

Structure (SMILES): COc1cc(C(=O)Nc2cc3ccc(OC4OC(C)(C)C(OC)C(O)C4O)c(C)c3oc2=O)cc(-c2cc(C(=O)Nc3cc4ccc(OC5OC(C)(C)C(OC)C(O)C5O)c(C)c4oc3=O)ccc2OC)c1 (stereo not drawn) [Compound 67]
- IC50 [1, 13]: 38000 ± 1500 nM
- IC50 [2, 14]: 28500 ± 4400 nM

Structure (SMILES): Cc1c(OCCCN(C)C)ccc2cc(NC(=O)C/C=C/CC(=O)Nc3cc4ccc(OCCCN(C)C)c(C)c4oc3=O)c(=O)oc12 [Compound 36]
- IC50 [1, 17]: 840 nM
- IC50 [2, 18]: 460 ± 20 nM
- degradation of HSP90 client proteins (Her-2, Raf, Akt), Western blot [6]: no activity against HSP90 client proteins
- IC50 [3, 21]: 12200 nM
- IC50 [4, 19]: 19400 nM
- IC50 [5, 20]: 15200 nM

Structure (SMILES): COC1C(O)C(O)C(Oc2ccc3cc(NC(=O)c4cccc(-c5cccc(C(=O)Nc6cc7ccc(OC8OC(C)(C)C(OC)C(O)C8O)c(C)c7oc6=O)c5)c4)c(=O)oc3c2C)OC1(C)C (stereo not drawn) [Compound 65]
- IC50 [1, 13]: 1260 ± 170 nM
- IC50 [2, 14]: 860 ± 140 nM

Structure (SMILES): COc1ccc(C(=O)Nc2cc3ccc(OC(C)=O)c(C)c3oc2=O)cc1-c1cc(C(=O)Nc2cc3ccc(OC(C)=O)c(C)c3oc2=O)ccc1OC [Compound 73]
- IC50 ([1]; Table 5, read-out: Anti-Proliferation Activities Non-Noviosylated Biaryl Dimers, MCF-7): > 100000 nM
- IC50 ([2]; Table 5, read-out: Anti-Proliferation Activities Non-Noviosylated Biaryl Dimers, SKBr3): 11800 ± 800 nM
- fold less active than the corresponding noviosylated coumarin-containing analogs (Compounds 65-70) [7]: ~10 fold

Structure (SMILES): COC1C(O)C(O)C(Oc2ccc3cc(NC(=O)CC=CCC(=O)Nc4cc5ccc(OC6OC(C)(C)C(OC)C(O)C6O)c(C)c5oc4=O)c(=O)oc3c2C)OC1(C)C (stereo not drawn) [Compound 20]
- IC50 [1, 15]: 53100 ± 7100 nM
- IC50 [2, 16]: > 100000 nM

Structure (SMILES): COc1c(OC2OC(C)(C)C(OC)C(O)C2O)ccc2cc(NC(=O)CC=CCC(=O)Nc3cc4ccc(OC5OC(C)(C)C(OC)C(O)C5O)c(OC)c4oc3=O)c(=O)oc12 (stereo not drawn) [Compound 17]
- IC50 [1, 15]: > 100000 nM
- IC50 [2, 16]: 52000 ± 7800 nM

Structure (SMILES): COc1c(OC2CCN(C)CC2)ccc2cc(NC(=O)C/C=C/CC(=O)Nc3cc4ccc(OC5CCN(C)CC5)c(OC)c4oc3=O)c(=O)oc12 [Compound 28]
- IC50 [1, 17]: 1460 ± 200 nM
- IC50 [2, 18]: 710 ± 40 nM
- IC50 [5, 20]: 8630 nM

Structure (SMILES): COc1cc2cc(NC(=O)CC=CCC(=O)Nc3cc4cc(OC)c(OC5OC(C)(C)C(OC)C(O)C5O)c(C)c4oc3=O)c(=O)oc2c(C)c1OC1OC(C)(C)C(OC)C(O)C1O (stereo not drawn) [Compound 16]
- IC50 [1, 15]: > 100000 nM
- IC50 [2, 16]: > 100000 nM

Structure (SMILES): COc1cc2cc(NC(=O)CCC/C=C/CCCC(=O)Nc3cc4cc(OC)c(OC5CCN(C)CC5)c(C)c4oc3=O)c(=O)oc2c(C)c1OC1CCN(C)CC1 [Compound 33]
- IC50 [1, 17]: 310 ± 50 nM
- IC50 [2, 18]: 220 ± 50 nM
- IC50 [4, 19]: 37700 nM
- IC50 [5, 20]: 380 nM
